Test results as given in ChEMBL document CHEMBL1201862, “PubChem BioAssay data set” (2004).
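Values below derive from 48-hour exposures of cells grown in 96-well plates, with endpoints linearly interpolated between the two concentrations bracketing the appropriate inhibition level. GI50 marks 50% less growth.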 The source made the active and inactive calls. Rule as the data show it: active = GI50 up to about 1.1 µM and inactive = higher.

Assays:
Assay in all cases: inhibition of tumour cell growth, NCI panel, 48 h
MDA-MB-231 = tested on: MDA-MB-231
NCI-H522 = tested on: NCI-H522
NCI/ADR-RES = tested on: NCI/ADR-RES
SK-OV-3 = tested on: SK-OV-3
SK-MEL-2 = tested on: SK-MEL-2
SW-620 = tested on: SW-620
SK-MEL-28 = tested on: SK-MEL-28
MDA-MB-435 = tested on: MDA-MB-435
EKVX = tested on: EKVX
MDA-N = tested on: MDA-N
U-251 = tested on: U-251
UACC-257 = tested on: UACC-257
SF-268 = tested on: SF-268
PC-3 = tested on: PC-3
SK-MEL-5 = tested on: SK-MEL-5
TK-10 = tested on: TK-10
HOP-92 = tested on: HOP-92
M14 = tested on: M14
A549 = tested on: A549
HCT-15 = tested on: HCT-15
Hs-578T = tested on: Hs-578T
DU-145 = tested on: DU-145
LOX IMVI = tested on: LOX IMVI
HL-60 = tested on: HL-60
RPMI-8226 = tested on: RPMI-8226
COLO 205 = tested on: COLO 205
HCT-116 = tested on: HCT-116
IGROV-1 = tested on: IGROV-1
UACC-62 = tested on: UACC-62
MOLT-4 = tested on: MOLT-4
NCI-H23 = tested on: NCI-H23
ACHN = tested on: ACHN
SR = tested on: SR
RXF 393 = tested on: RXF 393
OVCAR-5 = tested on: OVCAR-5
OVCAR-8 = tested on: OVCAR-8
SN12C = tested on: SN12C
SNB-75 = tested on: SNB-75
UO-31 = tested on: UO-31
KM12 = tested on: KM12
NCI-H460 = tested on: NCI-H460
SF-539 = tested on: SF-539
SF-295 = tested on: SF-295
T47D = tested on: T47D
MCF7 = tested on: MCF7
HT-29 = tested on: HT-29
HCC 2998 = tested on: HCC 2998
K562 = tested on: K562
SNB-19 = tested on: SNB-19
CAKI-1 = tested on: CAKI-1
OVCAR-4 = tested on: OVCAR-4
OVCAR-3 = tested on: OVCAR-3
CCRF-CEM = tested on: CCRF-CEM
Malme-3M = tested on: Malme-3M
A498 = tested on: A498
NCI-H226 = tested on: NCI-H226
786-0 = tested on: 786-0
HOP-62 = tested on: HOP-62

Compound: CCOC(=O)C(NC(=O)CC)(Nc1ccccc1OC)C(F)(F)F (stereo not drawn)
- GI50 (MDA-MB-231): > 100 µM (inactive)
- GI50 (NCI-H522): > 100 µM (inactive)
- GI50 (NCI/ADR-RES): > 100 µM (inactive)
- GI50 (SK-OV-3): > 100 µM (inactive)
- GI50 (SK-MEL-2): > 100 µM (inactive)
- GI50 (SW-620): > 100 µM (inactive)
- GI50 (SK-MEL-28): > 100 µM (inactive)
- GI50 (MDA-MB-435): > 100 µM (inactive)
- GI50 (EKVX): > 100 µM (inactive)
- GI50 (MDA-N): > 100 µM (inactive)
- GI50 (U-251): > 100 µM (inactive)
- GI50 (UACC-257): > 100 µM (inactive)
- GI50 (SF-268): > 100 µM (inactive)
- GI50 (PC-3): > 100 µM (inactive)
- GI50 (SK-MEL-5): > 100 µM (inactive)
- GI50 (TK-10): > 100 µM (inactive)
- GI50 (HOP-92): > 100 µM (inactive)
- GI50 (M14): > 100 µM (inactive)
- GI50 (A549): > 100 µM (inactive)
- GI50 (HCT-15): > 100 µM
- GI50 (Hs-578T): > 100 µM (inactive)
- GI50 (DU-145): > 100 µM (inactive)
- GI50 (LOX IMVI): > 100 µM (inactive)
- GI50 (HL-60): > 100 µM (inactive)
- GI50 (RPMI-8226): > 100 µM (inactive)
- GI50 (COLO 205): > 100 µM (inactive)
- GI50 (HCT-116): > 100 µM (inactive)
- GI50 (IGROV-1): > 100 µM (inactive)
- GI50 (UACC-62): > 100 µM (inactive)
- GI50 (MOLT-4): > 100 µM (inactive)
- GI50 (NCI-H23): > 100 µM (inactive)
- GI50 (ACHN): > 100 µM (inactive)
- GI50 (SR): > 100 µM (inactive)
- GI50 (RXF 393): > 100 µM (inactive)
- GI50 (OVCAR-5): > 100 µM (inactive)
- GI50 (OVCAR-8): > 100 µM (inactive)
- GI50 (SN12C): > 100 µM (inactive)
- GI50 (SNB-75): > 100 µM (inactive)
- GI50 (UO-31): > 100 µM (inactive)
- GI50 (KM12): > 100 µM (inactive)
- GI50 (NCI-H460): > 100 µM (inactive)
- GI50 (SF-539): > 100 µM (inactive)
- GI50 (SF-295): > 100 µM (inactive)
- GI50 (T47D): > 100 µM (inactive)
- GI50 (MCF7): > 100 µM (inactive)
- GI50 (HT-29): > 100 µM (inactive)
- GI50 (HCC 2998): > 100 µM (inactive)
- GI50 (K562): > 100 µM (inactive)
- GI50 (SNB-19): > 100 µM (inactive)
- GI50 (CAKI-1): 13 µM (inactive)
- GI50 (OVCAR-4): > 100 µM (inactive)
- GI50 (OVCAR-3): > 100 µM (inactive)
- GI50 (CCRF-CEM): > 100 µM (inactive)

Compound: c1cc(NC2=NCCO2)c2c(c1)OCO2
- GI50 (MDA-MB-231): > 100 µM (inactive)
- GI50 (NCI-H522): > 100 µM (inactive)
- GI50 (Malme-3M): > 100 µM (inactive)
- GI50 (NCI/ADR-RES): > 100 µM (inactive)
- GI50 (SK-OV-3): > 100 µM (inactive)
- GI50 (A498): > 100 µM (inactive)
- GI50 (SK-MEL-2): > 100 µM (inactive)
- GI50 (SW-620): > 100 µM (inactive)
- GI50 (SK-MEL-28): > 100 µM (inactive)
- GI50 (MDA-MB-435): > 100 µM (inactive)
- GI50 (EKVX): > 100 µM (inactive)
- GI50 (MDA-N): > 100 µM (inactive)
- GI50 (U-251): > 100 µM (inactive)
- GI50 (UACC-257): > 100 µM (inactive)
- GI50 (SF-268): > 100 µM (inactive)
- GI50 (PC-3): > 100 µM (inactive)
- GI50 (SK-MEL-5): > 100 µM (inactive)
- GI50 (HOP-92): > 100 µM (inactive)
- GI50 (M14): > 100 µM (inactive)
- GI50 (A549): > 100 µM (inactive)
- GI50 (HCT-15): > 100 µM
- GI50 (Hs-578T): > 100 µM (inactive)
- GI50 (NCI-H226): > 100 µM (inactive)
- GI50 (DU-145): > 100 µM (inactive)
- GI50 (LOX IMVI): > 100 µM (inactive)
- GI50 (HL-60): > 100 µM (inactive)
- GI50 (RPMI-8226): > 100 µM (inactive)
- GI50 (COLO 205): > 100 µM (inactive)
- GI50 (HCT-116): > 100 µM (inactive)
- GI50 (IGROV-1): > 100 µM (inactive)
- GI50 (UACC-62): > 100 µM (inactive)
- GI50 (MOLT-4): > 100 µM (inactive)
- GI50 (NCI-H23): > 100 µM (inactive)
- GI50 (ACHN): > 100 µM (inactive)
- GI50 (SR): > 100 µM (inactive)
- GI50 (RXF 393): > 100 µM (inactive)
- GI50 (OVCAR-5): > 100 µM (inactive)
- GI50 (OVCAR-8): > 100 µM (inactive)
- GI50 (SN12C): > 100 µM (inactive)
- GI50 (786-0): > 100 µM (inactive)
- GI50 (UO-31): > 100 µM (inactive)
- GI50 (KM12): 80.2 µM (inactive)
- GI50 (NCI-H460): > 100 µM (inactive)
- GI50 (SF-539): > 100 µM (inactive)
- GI50 (SF-295): > 100 µM (inactive)
- GI50 (T47D): > 100 µM (inactive)
- GI50 (MCF7): > 100 µM (inactive)
- GI50 (HT-29): > 100 µM (inactive)
- GI50 (HCC 2998): > 100 µM (inactive)
- GI50 (K562): > 100 µM (inactive)
- GI50 (SNB-19): > 100 µM (inactive)
- GI50 (CAKI-1): > 100 µM (inactive)
- GI50 (OVCAR-4): > 100 µM (inactive)
- GI50 (HOP-62): > 100 µM (inactive)
- GI50 (OVCAR-3): > 100 µM (inactive)
- GI50 (CCRF-CEM): > 100 µM (inactive)

Compound: O=[N+]([O-])/C=C\c1c[nH]c2ccc(OCc3ccccc3)cc12
- GI50 (MDA-MB-231): 3.57 µM (inactive)
- GI50 (NCI-H522): 10.2 µM (inactive)
- GI50 (Malme-3M): 11 µM (inactive)
- GI50 (NCI/ADR-RES): 19.3 µM (inactive)
- GI50 (SK-OV-3): 17.5 µM (inactive)
- GI50 (A498): 10.5 µM (inactive)
- GI50 (SK-MEL-2): 11.5 µM (inactive)
- GI50 (SW-620): 2.51 µM (inactive)
- GI50 (SK-MEL-28): 3.03 µM (inactive)
- GI50 (MDA-MB-435): 2.16 µM (inactive)
- GI50 (EKVX): 13.4 µM (inactive)
- GI50 (MDA-N): 2.23 µM (inactive)
- GI50 (U-251): 5.85 µM (inactive)
- GI50 (UACC-257): 1.64 µM (inactive)
- GI50 (SF-268): 4.37 µM (inactive)
- GI50 (PC-3): 7.33 µM (inactive)
- GI50 (SK-MEL-5): 5.06 µM (inactive)
- GI50 (TK-10): 10.4 µM (inactive)
- GI50 (HOP-92): 3.21 µM (inactive)
- GI50 (M14): 2.18 µM (inactive)
- GI50 (A549): 4.31 µM (inactive)
- GI50 (Hs-578T): 3.57 µM (inactive)
- GI50 (NCI-H226): 2.18 µM (inactive)
- GI50 (DU-145): 7.46 µM (inactive)
- GI50 (LOX IMVI): 1.86 µM (inactive)
- GI50 (HL-60): 2.62 µM (inactive)
- GI50 (RPMI-8226): 2.08 µM (inactive)
- GI50 (COLO 205): 3.85 µM (inactive)
- GI50 (HCT-116): 1.73 µM (inactive)
- GI50 (IGROV-1): 4.15 µM (inactive)
- GI50 (UACC-62): 2.9 µM (inactive)
- GI50 (MOLT-4): 3.6 µM (inactive)
- GI50 (NCI-H23): 3.4 µM (inactive)
- GI50 (ACHN): 2.13 µM (inactive)
- GI50 (SR): 2.03 µM (inactive)
- GI50 (RXF 393): 2.58 µM (inactive)
- GI50 (OVCAR-5): 11.1 µM (inactive)
- GI50 (OVCAR-8): 4.27 µM (inactive)
- GI50 (SN12C): 2.24 µM (inactive)
- GI50 (786-0): 1.93 µM (inactive)
- GI50 (UO-31): 3.58 µM (inactive)
- GI50 (KM12): 2.09 µM (inactive)
- GI50 (NCI-H460): 4.43 µM (inactive)
- GI50 (SF-539): 10.4 µM (inactive)
- GI50 (SF-295): 10.6 µM (inactive)
- GI50 (T47D): 2.64 µM (inactive)
- GI50 (MCF7): 6.49 µM (inactive)
- GI50 (HCC 2998): 1.67 µM (inactive)
- GI50 (K562): 2.55 µM (inactive)
- GI50 (SNB-19): 4.89 µM (inactive)
- GI50 (CAKI-1): 20.6 µM (inactive)
- GI50 (HOP-62): 12.9 µM (inactive)
- GI50 (OVCAR-3): 10.4 µM (inactive)
- GI50 (CCRF-CEM): 4.26 µM (inactive)
